Source: patent US10376520B2, “Methods for the treatment of cardiovascular disorders” (Galapagos NV, priority 2015, dated 2019)

Test system: RA patients
Assay: Atherogenic index, Study 1 (RA patients, add-on to MTX)
Assay type: in vivo, human
Protocol: As used herein, the term ‘atherogenic index’ refers to
Double-blind, placebo-controlled add on study in subjects with moderately to severely active RA who have an inadequate response to methotrexate (MTX) (oral or parenteral).
Compound 1 (dosed as a [Compound 1:HCl:3H2O]) is dosed for twelve weeks once daily (q.d.) (50 mg, 100 mg or 200 mg) or twice daily (b.i.d.) (25 mg, 50 mg or 100 mg); or placebo.
At Week 12, the subjects on placebo who have not achieved 20% improvement in swollen joint count (SJC66) and tender joint count (TJC68) are re-randomized automatically to receive Compound 1 (dosed as a [Compound 1:HCl:3H2O]) either at 100 mg q.d. or 50 mg b.i.d. doses in a blinded fashion; subjects on 50 mg q.d. who have not achieved 20% improvement in SJC66 and TJC68 will be assigned to 100 mg q.d. and subjects on 25 mg b.i.d. that have not achieved a 20% improvement in SJC66 and TJC68 will be assigned to 50 mg b.i.d. Subjects who switch treatment at week 12 are handled as if they discontinued at week 12 for the purpose of statistical analysis, whereas subjects in the other groups will maintain their randomized treatment until Week 24.
The atherogenic index has been identified to be a good predictor of cardiovascular disorders risks and is calculated as follows: […]

[1] = 25 mg b.i.d continued over 24 weeks, week 1
[2] = 25 mg b.i.d continued over 24 weeks, week 2
[3] = 25 mg b.i.d continued over 24 weeks, week 4
[4] = 25 mg b.i.d continued over 24 weeks, week 8
[5] = 25 mg b.i.d continued over 24 weeks, week 12
[6] = 25 mg b.i.d continued over 24 weeks, week 16
[7] = 25 mg b.i.d continued over 24 weeks, week 20
[8] = 25 mg b.i.d continued over 24 weeks, week 24
[9] = 50 mg b.i.d. continued over 24 weeks, week 1
[10] = 50 mg b.i.d. continued over 24 weeks, week 2
[11] = 50 mg b.i.d. continued over 24 weeks, week 4
[12] = 50 mg b.i.d. continued over 24 weeks, week 8
[13] = 50 mg b.i.d. continued over 24 weeks, week 12
[14] = 50 mg b.i.d. continued over 24 weeks, week 16
[15] = 50 mg b.i.d. continued over 24 weeks, week 20
[16] = 50 mg b.i.d. continued over 24 weeks, week 24
[17] = 50 mg q.d. continued over 24 weeks, week 1
[18] = 50 mg q.d. continued over 24 weeks, week 2
[19] = 50 mg q.d. continued over 24 weeks, week 4
[20] = 50 mg q.d. continued over 24 weeks, week 8
[21] = 50 mg q.d. continued over 24 weeks, week 12
[22] = 50 mg q.d. continued over 24 weeks, week 16
[23] = 50 mg q.d. continued over 24 weeks, week 20
[24] = 50 mg q.d. continued over 24 weeks, week 24

O=C(Nc1nc2cccc(-c3ccc(CN4CCS(=O)(=O)CC4)cc3)n2n1)C1CC1 [Compound 1, cyclopropanecarboxylic acid {5-[4-(1,1-dioxo-thiomorpholin-4-ylmethyl)-phenyl]-[1,2,4]triazolo[1,5-a]pyridin-2yl}-amide]
Atherogenic index Mean CFB - 24 weeks results [1]: 0.08 mmol/L | Atherogenic index Mean percentage CFB - 24 weeks results [1]: 2.78% | Atherogenic index Median CFB - 24 weeks results [1]: 0.10 mmol/L | Atherogenic index Mean CFB - 24 weeks results [2]: -0.01 mmol/L | Atherogenic index Mean percentage CFB - 24 weeks results [2]: 0.75% | Atherogenic index Median CFB - 24 weeks results [2]: 0.00 mmol/L | Atherogenic index Mean CFB - 24 weeks results [3]: -0.02 mmol/L | Atherogenic index Mean percentage CFB - 24 weeks results [3]: 0.43% | Atherogenic index Median CFB - 24 weeks results [3]: 0.00 mmol/L | Atherogenic index Mean CFB - 24 weeks results [4]: -0.05 mmol/L | Atherogenic index Mean percentage CFB - 24 weeks results [4]: −0.86% | Atherogenic index Median CFB - 24 weeks results [4]: -0.10 mmol/L | Atherogenic index Mean CFB - 24 weeks results [5]: 0.05 mmol/L | Atherogenic index Mean percentage CFB - 24 weeks results [5]: 2.68% | Atherogenic index Median CFB - 24 weeks results [5]: 0.00 mmol/L | Atherogenic index Mean CFB - 24 weeks results [6]: -0.03 mmol/L | Atherogenic index Mean percentage CFB - 24 weeks results [6]: 0.32% | Atherogenic index Median CFB - 24 weeks results [6]: 0.00 mmol/L | Atherogenic index Mean CFB - 24 weeks results [7]: 0.09 mmol/L | Atherogenic index Mean percentage CFB - 24 weeks results [7]: 4.42% | Atherogenic index Median CFB - 24 weeks results [7]: 0.00 mmol/L | Atherogenic index Mean CFB - 24 weeks results [8]: 0.02 mmol/L | Atherogenic index Mean percentage CFB - 24 weeks results [8]: 2.01% | Atherogenic index Median CFB - 24 weeks results [8]: 0.00 mmol/L | Atherogenic index Mean CFB - 24 weeks results [9]: -0.06 mmol/L | Atherogenic index Mean percentage CFB - 24 weeks results [9]: −0.30% | Atherogenic index Median CFB - 24 weeks results [9]: 0.00 mmol/L | Atherogenic index Mean CFB - 24 weeks results [10]: -0.21 mmol/L | Atherogenic index Mean percentage CFB - 24 weeks results [10]: −4.55% | Atherogenic index Median CFB - 24 weeks results [10]: -0.10 mmol/L | Atherogenic index Mean CFB - 24 weeks results [11]: -0.14 mmol/L | Atherogenic index Mean percentage CFB - 24 weeks results [11]: −2.75% | Atherogenic index Median CFB - 24 weeks results [11]: -0.10 mmol/L | Atherogenic index Mean CFB - 24 weeks results [12]: -0.18 mmol/L | Atherogenic index Mean percentage CFB - 24 weeks results [12]: −3.44% | Atherogenic index Median CFB - 24 weeks results [12]: -0.10 mmol/L | Atherogenic index Mean CFB - 24 weeks results [13]: -0.07 mmol/L | Atherogenic index Mean percentage CFB - 24 weeks results [13]: −0.87% | Atherogenic index Median CFB - 24 weeks results [13]: 0.00 mmol/L | Atherogenic index Mean CFB - 24 weeks results [14]: -0.13 mmol/L | Atherogenic index Mean percentage CFB - 24 weeks results [14]: −2.57% | Atherogenic index Median CFB - 24 weeks results [14]: -0.10 mmol/L | Atherogenic index Mean CFB - 24 weeks results [15]: -0.11 mmol/L | Atherogenic index Median CFB - 24 weeks results [15]: -0.10 mmol/L | Atherogenic index Mean CFB - 24 weeks results [16]: -0.04 mmol/L | Atherogenic index Mean percentage CFB - 24 weeks results [16]: 0.23% | Atherogenic index Median CFB - 24 weeks results [16]: 0.00 mmol/L | Atherogenic index Mean CFB - 24 weeks results [17]: -0.02 mmol/L | Atherogenic index Mean percentage CFB - 24 weeks results [17]: −0.40% | Atherogenic index Median CFB - 24 weeks results [17]: -0.10 mmol/L | Atherogenic index Mean CFB - 24 weeks results [18]: -0.15 mmol/L | Atherogenic index Mean percentage CFB - 24 weeks results [18]: −3.84% | Atherogenic index Median CFB - 24 weeks results [18]: -0.20 mmol/L | Atherogenic index Mean CFB - 24 weeks results [19]: -0.11 mmol/L | Atherogenic index Mean percentage CFB - 24 weeks results [19]: −2.94% | Atherogenic index Median CFB - 24 weeks results [19]: -0.10 mmol/L | Atherogenic index Mean CFB - 24 weeks results [20]: 0.00 mmol/L | Atherogenic index Mean percentage CFB - 24 weeks results [20]: 0.36% | Atherogenic index Median CFB - 24 weeks results [20]: -0.10 mmol/L | Atherogenic index Mean CFB - 24 weeks results [21]: 0.01 mmol/L | Atherogenic index Mean percentage CFB - 24 weeks results [21]: 1.11% | Atherogenic index Median CFB - 24 weeks results [21]: 0.00 mmol/L | Atherogenic index Mean CFB - 24 weeks results [22]: -0.01 mmol/L | Atherogenic index Mean percentage CFB - 24 weeks results [22]: 0.09% | Atherogenic index Median CFB - 24 weeks results [22]: 0.00 mmol/L | Atherogenic index Mean CFB - 24 weeks results [23]: -0.08 mmol/L | Atherogenic index Mean percentage CFB - 24 weeks results [23]: −1.32% | Atherogenic index Median CFB - 24 weeks results [23]: -0.10 mmol/L | Atherogenic index Mean CFB - 24 weeks results [24]: -0.12 mmol/L | Atherogenic index Mean percentage CFB - 24 weeks results [24]: −3.08% | Atherogenic index Median CFB - 24 weeks results [24]: -0.10 mmol/L | Atherogenic index Mean CFB (50 mg q.d., week 1): -0.02 mmol/L | Atherogenic index Mean percentage CFB - 12 weeks results (50 mg q.d., week 1): 0%
